Structures can show the parent of a compound that is named as a salt.
Biological target: GST tagged IRAK4 (Homo sapiens (Human), UniProt Q9NWZ3)
Test: IRAK4 Kinase Assay (IMAP fluorescence polarization)
Format: biochemical
Conditions: 0.5 nM GST tagged IRAK4, 100 μM ATP, 30 minutes at 25° C.
Outline: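 Reactions contained 0.5 nM GST-IRAK4, 100 nM fluorescent peptide substrate and 100 μM ATP in 10 mM Tris-HCl pH 7.2 with 1 mM MgCl2, and were started with ATP. After 30 minutes at 25° C they were stopped with IMAP reagent. Substrate phosphorylation was read as the change in fluorescence polarization.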

Sequence of GST tagged IRAK4 (Q9NWZ3 whole entry): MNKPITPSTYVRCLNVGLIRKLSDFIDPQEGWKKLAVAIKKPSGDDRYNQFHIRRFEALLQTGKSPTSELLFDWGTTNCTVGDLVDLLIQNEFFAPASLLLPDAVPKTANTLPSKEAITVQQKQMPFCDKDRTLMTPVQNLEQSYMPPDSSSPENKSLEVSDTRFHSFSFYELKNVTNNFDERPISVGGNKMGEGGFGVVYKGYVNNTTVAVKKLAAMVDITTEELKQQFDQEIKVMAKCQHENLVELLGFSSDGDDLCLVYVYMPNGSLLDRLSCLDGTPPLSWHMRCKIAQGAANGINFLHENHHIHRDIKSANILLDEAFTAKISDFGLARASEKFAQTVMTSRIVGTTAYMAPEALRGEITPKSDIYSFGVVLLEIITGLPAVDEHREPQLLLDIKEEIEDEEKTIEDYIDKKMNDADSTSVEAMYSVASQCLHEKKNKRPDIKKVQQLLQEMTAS

| SMILES | IC50 [nM] |
| --- | --- |
| N#Cc1ccccc1NC(=O)c1ccc2cnc(N[C@@H]3CCCC(F)(F)[C@@H]3N)nn12 [Example 136, 2-{[(1R,2R)-2-amino-3,3-difluorocyclohexyl]amino}-N-(2-cyanophenyl)pyrrolo[2,1-f][1,2,4]triazine-7-carboxamide trifluoroacetate] | 860 |
| N[C@@H]1[C@H](Nc2ncc3ccc(C(=O)Nc4ccccc4C(F)(F)F)n3n2)CCCC1(F)F [Example 137, 2-{[(1R,2R)-2-amino-3,3-difluorocyclohexyl]amino}-N-[2-(trifluoromethyl)phenyl]-pyrrolo[2,1-f][1,2,4]triazine-7-carboxamide trifluoroacetate] | 2190 |
| N[C@@H]1[C@H](Nc2ncc3ccc(C(=O)Nc4ccccc4Cl)n3n2)CCCC1(F)F [Example 138, 2-{[(1R,2R)-2-amino-3,3-difluorocyclohexyl]amino}-N-(2-chlorophenyl)pyrrolo[2,1-f][1,2,4]triazine-7-carboxamide trifluoroacetate] | 1640 |
| N#Cc1sccc1NC(=O)c1ccc2cnc(N3CCC[C@@H](N)C3)nn12 [Example 141, 2-[(3R)-3-aminopiperidin-1-yl]-N-(2-cyanothiophen-3-yl)pyrrolo[2,1-f][1,2,4]triazine-7-carboxamide trifluoroacetate] | 26 |
| N#Cc1cscc1NC(=O)c1ccc2cnc(N[C@@H]3CCCC[C@@H]3O)nn12 [Example 142, N-(4-cyanothiophen-3-yl)-2-{[(1R,2S)-2-hydroxycyclohexyl]amino}-pyrrolo[2,1-f][1,2,4]triazine-7-carboxamide trifluoroacetate] | 1590 |
| N#Cc1cscc1NC(=O)c1ccc2cnc(N3CCC[C@@H](N)C3)nn12 [Example 144, 2-[(3R)-3-aminopiperidin-1-yl]-N-(4-cyanothiophen-3-yl)pyrrolo[2,1-f][1,2,4]triazine-7-carboxamide trifluoroacetate] | 18 |
| N#Cc1sccc1NC(=O)c1ccc2cnc(N[C@@H]3CCCC[C@@H]3O)nn12 [Example 147, N-(2-cyanothiophen-3-yl)-2-{[(1R,2S)-2-hydroxycyclohexyl]amino}-pyrrolo[2,1-f][1,2,4]triazine-7-carboxamide] | 396 |
| Cn1cc(NC(=O)c2ccc3cnc(N4C[C@@H](N)C[C@@H](F)C4)nn23)c(C(F)(F)F)n1 [Example 148, 2-[(3S,5R)-3-amino-5-fluoropiperidin-1-yl]-N-[1-methyl-3-(trifluoromethyl)-1H-pyrazol-4-yl]pyrrolo[2,1-f][1,2,4]triazine-7-carboxamide] | 20 |
| Cn1cc(NC(=O)c2ccc3cnc(N4C[C@@H](N)C[C@H](F)C4)nn23)c(C(F)(F)F)n1 [Example 150, 2-[(3S,5S)-3-amino-5-fluoropiperidin-1-yl]-N-[1-methyl-3-(trifluoromethyl)-1H-pyrazol-4-yl]pyrrolo[2,1-f][1,2,4]triazine-7-carboxamide trifluoroacetate] | 10 |
| N#Cc1cscc1NC(=O)c1ccc2cnc(N[C@@H]3CCCC(F)(F)[C@@H]3N)nn12 [Example 153, 2-{[(1R,2R)-2-amino-3,3-difluorocyclohexyl]amino}-N-(4-cyanothiophen-3-yl)pyrrolo[2,1-f][1,2,4]triazine-7-carboxamide trifluoroacetate] | 120 |
| Cn1cc(NC(=O)c2ccc3cnc(N[C@@H]4CNC[C@H](F)C4)nn23)c(C(F)(F)F)n1 [Example 154, 2-{[(3S,5R)-5-fluoropiperidin-3-yl]amino}-N-[1-methyl-3-(trifluoromethyl)-1H-pyrazol-4-yl]pyrrolo[2,1-f][1,2,4]triazine-7-carboxamide] | 53 |
| N#Cc1sccc1NC(=O)c1ccc2cnc(N[C@@H]3CCCC(F)(F)[C@@H]3N)nn12 [Example 158, 2-{[(1R,2R)-2-amino-3,3-difluorocyclohexyl]amino}-N-(2-cyanothiophen-3-yl)pyrrolo[2,1-f][1,2,4]triazine-7-carboxamide formate] | 1040 |
| Cn1cc(NC(=O)c2ccc3cnc(N[C@H]4CNC[C@H](F)C4)nn23)c(C(F)(F)F)n1 [Example 162, 2-{[(3R,5R)-5-fluoropiperidin-3-yl]amino}-N-[1-methyl-3-(trifluoromethyl)-1H-pyrazol-4-yl]pyrrolo[2,1-f][1,2,4]triazine-7-carboxamide trifluoroacetate] | 18 |
| CCn1cc(NC(=O)c2ccc3cnc(N[C@@H]4CCCC[C@@H]4N)nn23)cn1 [Example 166, 2-{[(1R,2S)-2-Aminocyclohexyl]amino}-N-(1-ethyl-1H-pyrazol-4-yl)pyrrolo[2,1-f][1,2,4]triazine-7-carboxamide] | 38 |
| N[C@H]1CCCC[C@H]1Nc1ncc2ccc(C(=O)Nc3cnn(CCO)c3)n2n1 [Example 167, 2-{[(1R,2S)-2-aminocyclohexyl]amino}-N-[1-(2-hydroxyethyl)-1H-pyrazol-4-yl]pyrrolo[2,1-f][1,2,4]triazine-7-carboxamide trifluoroacetate] | 178 |

Compounds with a lower IC50, results first:

| IC50 [nM] | SMILES |
| --- | --- |
| 9 | N#Cc1cscc1NC(=O)c1ccc2cnc(N3CCC[C@H](N)C3)nn12 [Example 143, 2-[(3S)-3-aminopiperidin-1-yl]-N-(4-cyanothiophen-3-yl)pyrrolo[2,1-f][1,2,4]triazine-7-carboxamide trifluoroacetate] |
| 3 | N#Cc1cscc1NC(=O)c1ccc2cnc(N[C@@H]3CCCNC3)nn12 [Example 145, N-(4-cyanothiophen-3-yl)-2-[(3R)-piperidin-3-ylamino]pyrrolo[2,1-f][1,2,4]triazine-7-carboxamide trifluoroacetate] |
| 4 | N#Cc1sccc1NC(=O)c1ccc2cnc(N[C@@H]3CCCNC3)nn12 [Example 146, N-(2-cyanothiophen-3-yl)-2-[(3R)-piperidin-3-ylamino]pyrrolo[2,1-f][1,2,4]triazine-7-carboxamide trifluoroacetate] |
| 0.8 | Cn1cc(NC(=O)c2ccc3cnc(N4C[C@H](N)C[C@@H](F)C4)nn23)c(C(F)(F)F)n1 [Example 149, 2-[(3R,5R)-3-amino-5-fluoropiperidin-1-yl]-N-[1-methyl-3-(trifluoromethyl)-1H-pyrazol-4-yl]pyrrolo[2,1-f][1,2,4]triazine-7-carboxamide trifluoroacetate] |
| 0.8 | Cn1cc(NC(=O)c2ccc3cnc(N4C[C@@H](N)C[C@@H](F)C4)nn23)c(C(F)F)n1 [Example 151, 2-[(3S,5R)-3-amino-5-fluoropiperidin-1-yl]-N-[3-(difluoromethyl)-1-methyl-1H-pyrazol-4-yl]pyrrolo[2,1-f][1,2,4]triazine-7-carboxamide formate] |
| 7 | N#Cc1sccc1NC(=O)c1ccc2cnc(N3CCC[C@H](N)C3)nn12 [Example 152, 2-[(3S)-3-aminopiperidin-1-yl]-N-(2-cyanothiophen-3-yl)pyrrolo[2,1-f][1,2,4]triazine-7-carboxamide trifluoroacetate] |
| 7 | Cn1cc(NC(=O)c2ccc3cnc(N[C@@H]4CNC[C@H](F)C4)nn23)c(C(F)F)n1 [Example 155, N-[3-(difluoromethyl)-1-methyl-1H-pyrazol-4-yl]-2-{[(3S,5R)-5-fluoropiperidin-3-yl]amino}pyrrolo[2,1-f][1,2,4]triazine-7-carboxamide] |
| 0.5 | Cn1cc(NC(=O)c2ccc3cnc(N4C[C@H](N)C[C@@H](F)C4)nn23)c(C(F)F)n1 [Example 156, 2-[(3R,5R)-3-amino-5-fluoropiperidin-1-yl]-N-[3-(difluoromethyl)-1-methyl-1H-pyrazol-4-yl]pyrrolo[2,1-f][1,2,4]triazine-7-carboxamide trifluoroacetate] |
| 0.8 | Cn1cc(NC(=O)c2ccc3cnc(N4C[C@@H](N)C[C@H](F)C4)nn23)c(C(F)F)n1 [Example 157, 2-[(3S,5S)-3-amino-5-fluoropiperidin-1-yl]-N-[3-(difluoromethyl)-1-methyl-1H-pyrazol-4-yl]pyrrolo[2,1-f][1,2,4]triazine-7-carboxamide trifluoroacetate] |
| 0.5 | Cn1cc(NC(=O)c2ccc3cnc(N[C@H]4CNC[C@@H](F)C4)nn23)c(C(F)F)n1 [Example 159, N-[3-(difluoromethyl)-1-methyl-1H-pyrazol-4-yl]-2-{[(3R,5S)-5-fluoropiperidin-3-yl]amino}pyrrolo[2,1-f][1,2,4]triazine-7-carboxamide] |
| 9 | Cn1cc(NC(=O)c2ccc3cnc(N[C@H]4CNC[C@@H](F)C4)nn23)c(C(F)(F)F)n1 [Example 160, 2-{[(3R,5S)-5-fluoropiperidin-3-yl]amino}-N-[1-methyl-3-(trifluoromethyl)-1H-pyrazol-4-yl]pyrrolo[2,1-f][1,2,4]triazine-7-carboxamide] |
| 4 | Cn1cc(NC(=O)c2ccc3cnc(N[C@@H]4CNC[C@@H](F)C4)nn23)c(C(F)(F)F)n1 [Example 161, 2-{[(3S,5S)-5-fluoropiperidin-3-yl]amino}-N-[1-methyl-3-(trifluoromethyl)-1H-pyrazol-4-yl]pyrrolo[2,1-f][1,2,4]triazine-7-carboxamide trifluoroacetate] |
| 0.7 | Cn1cc(NC(=O)c2ccc3cnc(N4C[C@H](N)C[C@H](F)C4)nn23)c(C(F)F)n1 [Example 163, 2-[(3R,5S)-3-amino-5-fluoropiperidin-1-yl]-N-[3-(difluoromethyl)-1-methyl-1H-pyrazol-4-yl]pyrrolo[2,1-f][1,2,4]triazine-7-carboxamide trifluoroacetate] |
| 0.5 | Cn1cc(NC(=O)c2ccc3cnc(N[C@@H]4CNC[C@@H](F)C4)nn23)c(C(F)F)n1 [Example 164, N-[3-(difluoromethyl)-1-methyl-1H-pyrazol-4-yl]-2-{[(3S,5S)-5-fluoropiperidin-3-yl]amino}pyrrolo[2,1-f][1,2,4]triazine-7-carboxamide] |
| 1 | Cn1cc(NC(=O)c2ccc3cnc(N[C@H]4CNC[C@H](F)C4)nn23)c(C(F)F)n1 [Example 165, N-[3-(difluoromethyl)-1-methyl-1H-pyrazol-4-yl]-2-{[(3R,5R)-5-fluoropiperidin-3-yl]amino}pyrrolo[2,1-f][1,2,4]triazine-7-carboxamide trifluoroacetate] |

Source: US10329295B2, “Pyrrolotriazine inhibitors of IRAK4 activity” (MERCK SHARP & DOHME CORP., priority 2015, dated 2019)
